Molecules are shown by their SMILES.

The target of this assay is T1, Human MrgprX2 (Homo sapiens, UniProt Q96LB1).
T1 construct: expressed in transfected cells
T1 sequence (Q96LB1 1-330): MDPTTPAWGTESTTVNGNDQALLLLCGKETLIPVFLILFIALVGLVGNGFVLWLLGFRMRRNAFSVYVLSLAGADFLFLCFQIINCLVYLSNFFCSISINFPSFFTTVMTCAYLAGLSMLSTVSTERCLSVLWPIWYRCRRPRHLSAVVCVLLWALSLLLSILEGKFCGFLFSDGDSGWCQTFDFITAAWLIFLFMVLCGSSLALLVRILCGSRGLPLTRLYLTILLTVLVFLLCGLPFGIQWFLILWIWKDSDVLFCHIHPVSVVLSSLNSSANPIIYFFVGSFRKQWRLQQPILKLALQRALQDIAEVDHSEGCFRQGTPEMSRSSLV
As to the kind of experiment: Human MrgprX2 antagonist FLIPR intracellular calcium mobilization assay. It is filed as cell-based. The note with it: antagonist activity, recombinant hMrgpMRGPRX2 expressing cells, read-out: Human MrgprX2 Antagonist pIC50 (converted). Put shortly: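 Antagonist activity was read as inhibition of intracellular calcium mobilization (FLIPR) in recombinant cells expressing human MrgprX2. Potency was also checked in LAD-2 human mast cells with endogenous receptor, and orthologue activity in cells expressing mouse MrgprB2, mouse MrgprA1, and gerbil, Chinese hamster and cynomolgus orthologues.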
For orientation: Calcium assays in cells follow changes in intracellular calcium, usually with a dye or a luminescent sensor.
On to `CC(C)(O)C(=O)Nc1ncc(Cc2ccccc2F)s1` [Compound E005], for which the IC50 is 3.98 µM. For the compound `CN(CCO)C(=O)Nc1ncc(Oc2ccc(F)cc2)s1` [Compound E205], the IC50 is 0.251 µM. The same measure for `CC1(C(=O)Nc2ncc(Cc3cccc(F)c3)s2)CCOCC1` [Compound E007]: 0.1 µM. Then `C[C@H](O)CN(C)C(=O)Nc1ncc(Oc2cc(F)cc(C#N)c2)s1` [Compound E187], with 0.00126 µM; and `C[C@H](O)CN(C)C(=O)Nc1ncc(Cc2cc(F)ccc2F)s1` [Compound E136], with 0.00398 µM. On to `CCN(C[C@H](C)O)C(=O)Nc1ncc(Oc2cc(C#N)ccc2F)s1` [Compound E193], for which the IC50 was 0.0398 µM.

For the compound `Cc1cncc(Oc2cnc(NC(=O)N(C)C[C@H](C)O)s2)c1` [Compound E177], the IC50 is 1.58 µM.

As for `CN(C[C@H](O)C(F)(F)F)C(=O)Nc1ncc(Cc2cccc(F)c2)s1` [Compound E109], the IC50 is 0.0251 µM.

Values taken from US12502380B2, “MrgprX2 antagonists for the treatment of inflammatory disorders” (Dermira, Inc., priority 2019, dated 2025).
